According to patent US20150225369A1, “DDR2 INHIBITORS FOR THE TREATMENT OF OSTEOARTHRITIS” (Merck Patent GmbH, priority 2012, published 2015):
Like-named read-outs stand apart in the source and are kept apart here.

How the values were obtained:
[1] = biological target: T1, His-tagged human recombinant DDR-2 kinase domain (His-TEV-DDR2 467-855 aa) (Homo sapiens, UniProt Q16832); test: Autophosphorylation assay for biochemical activity testing of DDR2 (HTRF)
T1 construct: His-TEV-DDR2 467-855 aa
T1 sequence (Q16832 467-855): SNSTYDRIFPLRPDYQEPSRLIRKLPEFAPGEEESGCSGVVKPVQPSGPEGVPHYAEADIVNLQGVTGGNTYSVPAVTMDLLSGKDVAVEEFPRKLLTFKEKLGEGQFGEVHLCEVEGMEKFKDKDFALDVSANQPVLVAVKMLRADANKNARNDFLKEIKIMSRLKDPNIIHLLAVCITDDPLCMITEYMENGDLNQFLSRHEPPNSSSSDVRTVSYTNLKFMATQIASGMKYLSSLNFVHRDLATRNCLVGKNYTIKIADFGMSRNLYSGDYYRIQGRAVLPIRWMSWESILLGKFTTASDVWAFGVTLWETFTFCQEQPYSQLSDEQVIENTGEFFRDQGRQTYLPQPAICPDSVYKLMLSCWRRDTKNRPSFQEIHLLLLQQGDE
Method in brief: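 Phospho-tyrosine was detected by HTRF between XL665 anti-6His and cryptate anti-phosphotyrosine PT66 antibodies, using the emission ratio. Inhibition was referenced to the inhibitor-free reaction.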

[2] = biological target: T2, HEK293 transfected with human DDR2 (Homo sapiens, UniProt Q16832); test: Phospho-DDR2 cellular assay (collagen II induced DDR2 phosphorylation, ELISA); assay type: cell-based; conditions: read-out: IC50 [p-DDR2]
T2 construct: expressed in transfected cells; host or cells: HEK293 (PLT460F_(DDR2)-P7-1)
T2 sequence (Q16832 22-855): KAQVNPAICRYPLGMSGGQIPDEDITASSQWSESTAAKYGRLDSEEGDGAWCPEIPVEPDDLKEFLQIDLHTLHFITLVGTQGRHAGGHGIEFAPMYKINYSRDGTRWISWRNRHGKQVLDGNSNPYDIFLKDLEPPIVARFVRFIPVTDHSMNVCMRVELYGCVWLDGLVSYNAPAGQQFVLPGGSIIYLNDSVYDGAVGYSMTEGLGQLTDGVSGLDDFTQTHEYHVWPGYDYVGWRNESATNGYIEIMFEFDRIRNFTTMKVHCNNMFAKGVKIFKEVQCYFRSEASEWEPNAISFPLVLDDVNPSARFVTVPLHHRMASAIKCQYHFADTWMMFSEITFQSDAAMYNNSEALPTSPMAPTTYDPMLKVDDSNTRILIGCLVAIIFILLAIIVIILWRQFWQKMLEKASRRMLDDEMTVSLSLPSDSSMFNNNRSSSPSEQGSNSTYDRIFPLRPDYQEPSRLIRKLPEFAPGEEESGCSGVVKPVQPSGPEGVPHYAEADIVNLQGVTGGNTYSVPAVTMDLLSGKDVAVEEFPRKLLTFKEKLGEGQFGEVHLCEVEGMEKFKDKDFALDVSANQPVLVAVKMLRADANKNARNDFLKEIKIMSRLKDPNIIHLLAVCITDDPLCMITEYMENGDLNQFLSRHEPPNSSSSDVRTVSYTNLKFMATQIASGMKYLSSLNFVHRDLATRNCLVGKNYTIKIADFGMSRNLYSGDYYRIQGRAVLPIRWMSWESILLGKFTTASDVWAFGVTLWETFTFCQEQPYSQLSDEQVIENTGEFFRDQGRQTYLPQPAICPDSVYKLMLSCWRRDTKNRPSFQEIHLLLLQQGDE
Protocol: Assays were performed in a 384 well plate format, using cell line HEK293 transfected with human DDR2 (PLT460F_(DDR2)-P7-1)
Cells were seeded at a density of 10'000 cells/well in 384well poly-D-lysine coated Black/clear plate (Cellcoat Greiner) and incubated in DMEM medium in the presence of 10% fetal bovine serum at 37° C., 5% CO2 for 48 h. Medium was replaced by serum-free medium and cells were incubated at 37° C., 5% CO2 for 8 h. Compound to be tested in 5% DMSO or 5% DMSO and 50 μg/ml of chicken collagen II were added and cells were incubated at 37° C., 5% CO2 for 16 h
Cells were rinsed with ice-cold PBS, lysed with lysis buffer (M-PER Thermo #78501) for 30 min at room temperature and centrifuged for 1 min at 1000 RPM. In parallel, White High binding 384 well plates (Corning) were coated with mouse anti-human DDR2 capture antibody (R&D Systems kit DuoSet IC Human phospho-DDR2 ELISA), overnight at RT.
An aliquot of cell lysate was transferred to the coated plates and incubated for 2 h at RT. Plates were washed and mouse anti-phospho-tyrosine detection antibody (R&D Systems kit DuoSet IC Human phospho-DDR2 ELISA) conjugated to horse radish peroxidase (HRP) was added for 2 h at RT. Plates were washed and chemiluminescent substrate for HRP (Thermo) was added for 15 min at RT. Luminescence was measured on a luminometer.

[3] = biochemical DDR2 autophosphorylation
[4] = 4 nM DDR2 kinase domain, 150 μM ATP, 150 min at 22° C.
[5] = HEK293 transfected with human DDR2, 50 μg/ml chicken collagen II, 16 h

Row | IC50 ([2]; cellular phospho-DDR2) [µM] | SMILES | also measured
1 | 0.028 | CNC(=O)c1cc(Oc2ccc(CNC(=O)Nc3cc(Cl)c(C)cc3OCCN(C)C)cc2)ccn1 [compound 174, 4-(4-{3-[5-Chloro-2-(2-dimethylamino-ethoxy)-4-methyl-phenyl]-ureidomethyl}-phenoxy)-pyridine-2-carboxylic acid methylamide] | IC50 [1, 3]: 0.14 µM
2 | 11 | CNC(=O)c1cc(Oc2ccc(CNC(=O)Nc3cccnc3Cl)cc2)ccn1 [compound 226, 4-{4-[3-(2-Chloro-pyridin-3-yl)-ureidomethyl]-phenoxy}-pyridine-2-carboxylic acid methylamide] | IC50 [1, 3]: 19 µM
3 | 0.23 | CNC(=O)c1cc(Oc2ccc(CNC(=O)Nc3cc(Cl)ccc3C)cc2)ccn1 [compound 42, 4-{4-[3-(5-Chloro-2-methyl-phenyl)-ureidomethyl]-phenoxy}-pyridine-2-carboxylic acid methylamide] | 
4 | 0.195 | CNC(=O)c1cc(Oc2ccc(CNC(=O)Nc3ccc(Cl)c(Cl)c3)cc2)ccn1 [compound 3] | 
5 | 0.75 | CNC(=O)c1cc(Oc2ccc(CNC(=O)Nc3cc(OC)c(OC)c(OC)c3)cc2)ccn1 [compound 80, 4-{4-[3-(3,4,5-Trimethoxy-phenyl)-ureidomethyl]-phenoxy}-pyridine-2-carboxylic acid methylamide] | 
6 | 0.255 | CNC(=O)c1cc(Oc2ccc(CNC(=O)Nc3ccc(Cl)cc3Cl)cc2)ccn1 [compound 8] | 
7 | 0.39 | CNC(=O)c1cc(Oc2ccc(CNC(=O)Nc3cccc(S(C)(=O)=O)c3)cc2)ccn1 [compound 135, 4-{4-[3-(3-Methanesulfonyl-phenyl)-ureidomethyl]-phenoxy}-pyridine-2-carboxylic acid methylamide] | 
8 | 0.175 | CNC(=O)c1cc(Oc2ccc(CNC(=O)Nc3cc(Cl)cc(Cl)c3)cc2)ccn1 [compound 31] | 
9 | 0.114 | CNC(=O)c1cc(Oc2ccc(CNC(=O)Nc3cc(C)c(Cl)cc3-n3cccc3)cc2)ccn1 [compound 219, 4-{4-[3-(4-Chloro-5-methyl-2-pyrrol-1-yl-phenyl)-ureidomethyl]-phenoxy}-pyridine-2-carboxylic acid methylamide] | 
10 | 0.072 | CNC(=O)c1cc(Oc2ccc(CNC(=O)Nc3ccc(C)c(Cl)c3)cc2F)ccn1 [compound 234, 4-{4-[3-(3-Chloro-4-methyl-phenyl)-ureidomethyl]-2-fluoro-phenoxy}-pyridine-2-carboxylic acid methylamide] | 
11 | 9.4 | CNC(=O)c1cc(Oc2ccc(CNC(=O)Nc3cc(C(F)(F)F)ccc3-n3ccnc3)cc2)ccn1 [compound 243, 4-{4-[3-(2-Imidazol-1-yl-5-trifluoromethyl-phenyl)-ureidomethyl]-phenoxy}-pyridine-2-carboxylic acid methylamide] | 
12 | 2.05 | CNC(=O)c1cc(Oc2ccc(CNC(=O)Nc3cc(C)on3)cc2)ccn1 [compound 236, 4-{4-[3-(5-Methyl-isoxazol-3-yl)-ureidomethyl]-phenoxy}-pyridine-2-carboxylic acid methylamide] | 
13 | 0.575 | CNC(=O)c1cc(Oc2ccc(CNC(=O)Nc3nnc(C(F)(F)F)s3)cc2)ccn1 [compound 222, 4-{4-[3-(5-Trifluoromethyl-[1,3,4]thiadiazol-2-yl)-ureidomethyl]-phenoxy}-pyridine-2-carboxylic acid methylamide] | 

The remaining lines, values behind:

Row | SMILES | IC50 ([2]; cellular phospho-DDR2) [µM] | also measured
14 | CNC(=O)c1cc(Oc2ccc(CNC(=O)Nc3cc(C(F)(F)F)ccc3OCCN3CCNCC3)cc2)ccn1 [compound 112, 4-(4-{3-[2-(2-Piperazin-1-yl-ethoxy)-5-trifluoromethyl-phenyl]-ureidomethyl}-phenoxy)-pyridine-2-carboxylic acid methylamide] | 0.047 | IC50 [1, 3]: 0.13 µM
15 | CNC(=O)c1cc(Oc2ccc(CNC(=O)Nc3cc(Cl)c(C)cc3OC3CCNCC3)cc2)ccn1 [compound 178, 4-(4-{3-[5-Chloro-4-methyl-2-(piperidin-4-yloxy)-phenyl]-ureidomethyl}-phenoxy)-pyridine-2-carboxylic acid methylamide] | 0.025 | IC50 [1, 3]: 0.035 µM
16 | Cc1cc(Oc2ccc(CNC(=O)Nc3cc(C(F)(F)F)cnc3Cl)cc2)ccn1 [compound 29] |  | IC50 [1, 4]: 0.35 µM; IC50 [2, 5]: 0.094 µM
17 | Cn1cc(C(F)(F)F)cc(NC(=O)NCc2ccc(Oc3ccnc4[nH]ccc34)cc2)c1=O [compound 3] |  | IC50 [1, 4]: 0.066 µM; IC50 [2, 5]: 0.02 µM
18 | Cn1cc(C(F)(F)F)cc(NC(=O)NCc2ccc(Oc3ccnc4ccc(C(F)(F)F)cc34)cc2)c1=O [compound 2] |  | IC50 [1, 4]: 0.4 µM; IC50 [2, 5]: 5.6 µM
19 | CNC(=O)c1cc(Oc2ccc(CNC(=O)Nc3cc(C(F)(F)F)ccc3OCC(N)=O)cc2)ccn1 [compound 190, 4-{4-[3-(2-Carbamoylmethoxy-5-trifluoromethyl-phenyl)-ureidomethyl]-phenoxy}-pyridine-2-carboxylic acid methylamide] | 0.04 | IC50 [1, 3]: 0.12 µM
20 | CNC(=O)c1cc(Oc2ccc(CNC(=O)Nc3cccc(S(C)(=O)=O)c3)cc2C)ccn1 [compound 154, 4-{4-[3-(3-Methanesulfonyl-phenyl)-ureidomethyl]-2-methyl-phenoxy}-pyridine-2-carboxylic acid methylamide] | 1.25 | 
21 | CNC(=O)c1cc(Oc2ccc(CNC(=O)Nc3cc(C(F)(F)F)ccc3CN)cc2C)ccn1 [compound 221, 4-{4-[3-(2-Aminomethyl-5-trifluoromethyl-phenyl)-ureidomethyl]-2-methyl-phenoxy}-pyridine-2-carboxylic acid methylamide] | 0.18 | 
22 | CNC(=O)c1cc(Oc2ccc(CNC(=O)Nc3cc(C(F)(F)F)ccc3CC(=O)O)cc2C)ccn1 [compound 220, (2-{3-[3-Methyl-4-(2-methylcarbamoyl-pyridin-4-yloxy)-benzyl]-ureido}-4-trifluoromethyl-phenyl)-acetic acid] | 23.5 | 
23 | CNC(=O)Cc1ccc(C(F)(F)F)cc1NC(=O)NCc1ccc(Oc2ccnc(C(=O)NC)c2)c(C)c1 [compound 200, 4-{2-Methyl-4-[3-(2-methylcarbamoylmethyl-5-trifluoromethyl-phenyl)-ureidomethyl]-phenoxy}-pyridine-2-carboxylic acid methylamide] | 0.455 | 
24 | CNC(=O)c1cc(Oc2ccc(CNC(=O)Nc3cc(C)c(Cl)cc3N(C)CCN(C)C)cc2)ccn1 [compound 162, 4-[4-(3-{4-Chloro-2-[(2-dimethylamino-ethyl)-methyl-amino]-5-methyl-phenyl}-ureidomethyl)-phenoxy]-pyridine-2-carboxylic acid methylamide] | 1.6 | 
25 | CNC(=O)c1cc(Oc2ccc(CNC(=O)Nc3cc(C(F)(F)F)ccc3N3CCNCC3)cc2)ccn1 [compound 122, 4-{4-[3-(2-Piperazin-1-yl-5-trifluoromethyl-phenyl)-ureidomethyl]-phenoxy}-pyridine-2-carboxylic acid methylamide] | 0.135 | 
